Measurements from US20190185417A1, “NOVEL ANTIBIOTICS” (priority 2016, published 2019).

Columns and labels:
Experiment in all cases: MIC by broth microdilution
Type in all cases: cell-based
Conditions in all cases: Table 2, Example 2
[1] = tested on: Haemophilus influenzae (ATCC 49247)
Procedure: (§1) The antibacterial potency of the test article(s) was measured using the in vitro broth microdilution assay under assay conditions described by the Clinical and Laboratory Standards Institute. […] The test substance was dissolved in 100% DMSO (unless stated below), suspended completely by sonication or vortexing, diluted by 2-fold serial titrations in the same vehicle, for a total of 11 test concentrations. A 4 μL aliquot of each dilution was added to 196 μL of broth medium seeded with the organism suspension in wells of a 96 well plate (bacterial count: 2−8×10^5 colony forming units/mL final). The final volume was 200 μL in each well and the final DMSO concentration was 2 percent. Following incubation, the test plates were visually examined and wells were scored for growth or complete growth inhibition to define the minimum inhibitory concentration. Each test substance was evaluated in duplicate and the results below are the duplicate test values. Vehicle-control and an active reference agent were used as blank and positive controls, respectively.

[2] = tested on: Acinetobacter baumannii (ATCC 17978)
Procedure: as §1, with “DMSO,” for “DMSO (unless stated below),”, “incubation for 1 day at 36° C.,” for “incubation,”, “were reported as” for “below are”, “respectively. Microorganisms tested were Acinetobacter baumannii (ATCC 17978), Enterococcus faecalis (ATCC 29212), Enterococcus faecium VanA (ATCC 700221), Escherichia coli (ATCC 25922), Escherichia coli efflux defective DEL-tolC (JW5503), Heamophilus influenzae (ATCC 49247), Klebsiella pneumoniae (ATCC 43816), Pseudomonas aeruginosa (ATCC 27853), Pseudomonas aeruginosa MDR (NTUH-974), Staphylococcus aureus (ATCC 29213), Staphylococcus aureus MRSA (ATCC 33591) and Streptococcous pneumoniae (ATCC 46919). H. influenzae was grown in Haemophilus Test Medium and S. pneumoniae was grown in cation adjusted Muller-Hinton Broth II with 5% lysed horse blood. All other microorganisms were grown in cation adjusted Muller-Hinton Broth II.” for “respectively.”
as §1

[3] = tested on: Klebsiella pneumoniae (ATCC 43816)
Procedure: as §1, with “DMSO,” for “DMSO (unless stated below),”, “incubation for 1 day at 36° C.,” for “incubation,”, “were reported as” for “below are”, “respectively. Microorganisms tested were Acinetobacter baumannii (ATCC 17978), Enterococcus faecalis (ATCC 29212), Enterococcus faecium VanA (ATCC 700221), Escherichia coli (ATCC 25922), Escherichia coli efflux defective DEL-tolC (JW5503), Heamophilus influenzae (ATCC 49247), Klebsiella pneumoniae (ATCC 43816), Pseudomonas aeruginosa (ATCC 27853), Pseudomonas aeruginosa MDR (NTUH-974), Staphylococcus aureus (ATCC 29213), Staphylococcus aureus MRSA (ATCC 33591) and Streptococcous pneumoniae (ATCC 46919). H. influenzae was grown in Haemophilus Test Medium and S. pneumoniae was grown in cation adjusted Muller-Hinton Broth II with 5% lysed horse blood. All other microorganisms were grown in cation adjusted Muller-Hinton Broth II.” for “respectively.”
as §1

[4] = tested on: Pseudomonas aeruginosa (ATCC 27853)
Procedure: as §1, with “DMSO,” for “DMSO (unless stated below),”, “incubation for 1 day at 36° C.,” for “incubation,”, “were reported as” for “below are”, “respectively. Microorganisms tested were Acinetobacter baumannii (ATCC 17978), Enterococcus faecalis (ATCC 29212), Enterococcus faecium VanA (ATCC 700221), Escherichia coli (ATCC 25922), Escherichia coli efflux defective DEL-tolC (JW5503), Heamophilus influenzae (ATCC 49247), Klebsiella pneumoniae (ATCC 43816), Pseudomonas aeruginosa (ATCC 27853), Pseudomonas aeruginosa MDR (NTUH-974), Staphylococcus aureus (ATCC 29213), Staphylococcus aureus MRSA (ATCC 33591) and Streptococcous pneumoniae (ATCC 46919). H. influenzae was grown in Haemophilus Test Medium and S. pneumoniae was grown in cation adjusted Muller-Hinton Broth II with 5% lysed horse blood. All other microorganisms were grown in cation adjusted Muller-Hinton Broth II.” for “respectively.”
as §1

[5] = tested on: Pseudomonas aeruginosa, MDR (NTUH-974)
Procedure: as §1, with “DMSO,” for “DMSO (unless stated below),”, “incubation for 1 day at 36° C.,” for “incubation,”, “were reported as” for “below are”, “respectively. Microorganisms tested were Acinetobacter baumannii (ATCC 17978), Enterococcus faecalis (ATCC 29212), Enterococcus faecium VanA (ATCC 700221), Escherichia coli (ATCC 25922), Escherichia coli efflux defective DEL-tolC (JW5503), Heamophilus influenzae (ATCC 49247), Klebsiella pneumoniae (ATCC 43816), Pseudomonas aeruginosa (ATCC 27853), Pseudomonas aeruginosa MDR (NTUH-974), Staphylococcus aureus (ATCC 29213), Staphylococcus aureus MRSA (ATCC 33591) and Streptococcous pneumoniae (ATCC 46919). H. influenzae was grown in Haemophilus Test Medium and S. pneumoniae was grown in cation adjusted Muller-Hinton Broth II with 5% lysed horse blood. All other microorganisms were grown in cation adjusted Muller-Hinton Broth II.” for “respectively.”
as §1

[6] = tested on: Escherichia coli (ATCC 25922)
Procedure: as §1, with “DMSO,” for “DMSO (unless stated below),”, “incubation for 1 day at 36° C.,” for “incubation,”, “were reported as” for “below are”, “respectively. Microorganisms tested were Acinetobacter baumannii (ATCC 17978), Enterococcus faecalis (ATCC 29212), Enterococcus faecium VanA (ATCC 700221), Escherichia coli (ATCC 25922), Escherichia coli efflux defective DEL-tolC (JW5503), Heamophilus influenzae (ATCC 49247), Klebsiella pneumoniae (ATCC 43816), Pseudomonas aeruginosa (ATCC 27853), Pseudomonas aeruginosa MDR (NTUH-974), Staphylococcus aureus (ATCC 29213), Staphylococcus aureus MRSA (ATCC 33591) and Streptococcous pneumoniae (ATCC 46919). H. influenzae was grown in Haemophilus Test Medium and S. pneumoniae was grown in cation adjusted Muller-Hinton Broth II with 5% lysed horse blood. All other microorganisms were grown in cation adjusted Muller-Hinton Broth II.” for “respectively.”
as §1

[7] = tested on: Escherichia coli, efflux defective DEL-tolC (JW5503)
Procedure: as §1, with “DMSO,” for “DMSO (unless stated below),”, “incubation for 1 day at 36° C.,” for “incubation,”, “were reported as” for “below are”, “respectively. Microorganisms tested were Acinetobacter baumannii (ATCC 17978), Enterococcus faecalis (ATCC 29212), Enterococcus faecium VanA (ATCC 700221), Escherichia coli (ATCC 25922), Escherichia coli efflux defective DEL-tolC (JW5503), Heamophilus influenzae (ATCC 49247), Klebsiella pneumoniae (ATCC 43816), Pseudomonas aeruginosa (ATCC 27853), Pseudomonas aeruginosa MDR (NTUH-974), Staphylococcus aureus (ATCC 29213), Staphylococcus aureus MRSA (ATCC 33591) and Streptococcous pneumoniae (ATCC 46919). H. influenzae was grown in Haemophilus Test Medium and S. pneumoniae was grown in cation adjusted Muller-Hinton Broth II with 5% lysed horse blood. All other microorganisms were grown in cation adjusted Muller-Hinton Broth II.” for “respectively.”
as §1

Measured: MIC

CN(C)c1ccc(/C=C/c2cc(/C=C/c3ccc(N(C)C)cc3)cc(/C=C/c3ccc(N(C)C)cc3)c2)cc1 [Compound 10]
>128 µg/mL: all assays above
